# Measurements: a melting point compilation (Tetko et al.; mined from patent text by program, amines drawn as free bases though some values may be those of a salt)
row,SMILES,melting point
1,Cc1nc(-n2c(C)ccc2C)nc(C)c1Br,64 to 65 °C
2,COc1cn(-c2cccc3cccnc23)nc(-c2ccnn2-c2ccccc2)c1=O,189 to 192 °C
3,CCCNC(=O)C1(CCCCN2CCC(N3Cc4ccccc4C3=O)CC2)CCc2ccccc21 (stereo unspecified),61 to 63 °C
4,c1ccc(Cc2n[nH]c(NCCCOc3cccc(CN4CCCCC4)c3)n2)cc1,143 to 144 °C
5,FC(F)(F)c1ccc2nc(N3CCN(c4ccncc4C(F)(F)F)CC3)[nH]c2c1,220 to 224 °C
6,O=C(Nc1ccc(C#CCCN2CC=C(c3ccccc3)CC2)nc1)c1cccs1,187 to 188 °C
7,CCCCCCCCCCCCCCCCOCC1OCCCC1=O (stereo unspecified),42 to 43.5 °C
8,Cc1c(F)c(F)c(C(=O)N[C@@H](C)C(C)C)c(F)c1F,146 to 147 °C
9,"CCCCOc1ccc(C#CC2(O)CN3CCC2CC3)cc1 (single isomer, unassigned; (+))",115 to 116 °C
10,Cc1cccc(C)c1N(CCCc1cccnc1)C(=O)Cn1ccnc1C,89 to 90 °C
11,CNC(=O)CCCCCc1cccc2cncn12,118 to 122 °C
12,C#CCn1cc(CO)c(C(F)(F)F)c1,45 °C
13,N#CCc1cccc(C#CCOc2ccc(Br)cn2)c1,121 to 123 °C
14,Clc1ccc(C(c2ccccc2)c2ccccc2)cn1,69.5 to 71 °C
15,O=C(C1CC1)N1CCC2(CC1)OC(c1ccccc1)C1CCCCN12 (stereo unspecified),110 to 114 °C
16,COc1ccc(N2CCN(c3ccc(F)cc3)C(=O)C2)c(-c2ccc(N(C)C)cc2)n1,158 to 164 °C
17,CNC(=O)n1ccc(O)cc1=O,268 °C
18,Nc1ccc(OCc2ccc3ccccc3n2)cc1,126 to 128 °C
19,COC(=O)C(Cc1ccc(O)cc1)OC (stereo unspecified),61 to 63 °C
20,Cc1ncc2[nH]c3ccccc3c2n1,240 to 242 °C
21,CSCC[C@H](N)C(=O)NC(=O)N(CCCl)N=O,95 to 97 °C
22,Fc1ccc(OCCCCCCN2CCN(c3nccs3)CC2)cc1,58 to 60 °C
23,CCOC(=O)C1=C(C)N2CCNC2=C(C(=O)OCC)C1C (stereo unspecified),138 °C
24,CC(C)C[C@@H](CC=O)NC(=O)[C@H](Cc1c[nH]cn1)NC(=O)[C@H](Cc1cccc2ccccc12)NC(=O)OCc1ccccc1,153 to 156 °C

row,SMILES,melting point
1,O=C(O)CCc1cn(Cc2ccc(OCc3ccc(-c4ccccc4)cn3)cc2)nc1-c1ccccc1,149 to 150 °C
2,CC(Cc1ccc(OCc2cccc(C(F)(F)F)c2)cc1)NC(=O)CC(c1ccccc1)c1ccccc1 (stereo unspecified),110 to 113 °C
3,CCCCOC(=O)C(C)(NC(=O)c1cc([N+](=O)[O-])cc([N+](=O)[O-])c1)C(C)C (stereo unspecified),110 to 113 °C
4,Cc1ccnc2c1nc(CO)n2C,> 300 °C
5,Cc1cc(C(=O)O)c(S(N)(=O)=O)o1,191 °C
6,CC(C)Oc1c(C(N)=O)sc2ccc(N)cc12,150 to 151 °C
7,CCc1n[nH]c(=O)n1C,86 °C
8,Fc1c(F)c(C(F)(F)F)c(F)c(F)c1Nc1ccc(-c2ccc(Nc3c(F)c(F)c(C(F)(F)F)c(F)c3F)cc2)cc1,179 to 180 °C
9,CCC(=O)NN=C(C)c1cnccn1,181 °C
10,O=S(=O)(Nc1ccc(I)cc1)N1CCOCC1,91 °C
11,N#CC1=C(C2CCNCC2)Nc2n[nH]cc2C1c1ccccc1Cl (stereo unspecified),221 °C
12,Fc1nccc(I)c1CCCCl,24 to 25 °C
13,CCCCCCN1CCN(Cc2ccc(N)cc2)C(=O)C1=O,99 to 102 °C
14,COc1ncc(C(F)(F)F)cc1C=NO,98 to 104 °C
15,Cc1oc(C2(C)CCCCC2)nc1C(=O)O,128 to 129 °C
16,CN(C)CCCSC1=C(C#N)C(c2ccccn2)(c2ccccn2)C(=O)N1,184 to 185 °C
17,CC1CC(=O)NN=C1c1ccc(N2CCC(CN)CC2)c([N+](=O)[O-])c1 (stereo unspecified),131 to 132 °C
18,CCOc1ncc(I)cc1C(=O)OC,67 to 69 °C
19,CC(=O)C12CCC(CC1)CC2(C)O (stereo unspecified),43 to 44 °C
20,CN1CNC(=S)N(c2ccc(N(C)C)cc2)C1,173 to 175 °C
21,CC(C)(C)OC(=O)[C@@H](N)Cc1cc(I)c(O)c(I)c1,165 to 168 °C
22,CCCC(CCC)Nc1cc(C)nc(Cl)c1N,139 to 140 °C
23,O=Cc1nccc(OCc2ccccc2)c1OCc1ccccc1,103 to 104 °C

# Next, values leading:
row,melting point,SMILES
1,161 to 163 °C,O=C(c1ccc(Cl)cc1)c1cc(Cl)cc2c1OCC2C(=O)O (stereo unspecified)
2,180 to 182 °C,COc1cc2c(cc1SCC(=O)O)oc1ccccc12
3,180 °C,CN(c1ccccc1[N+](=O)[O-])S(=O)(=O)c1cccnc1Cl
4,148 to 150 °C,C=C(c1cc(C(C)(C)C)cc2c1CCC2(C)C)c1sccc1C=O
5,98 to 101 °C,CCC(Oc1cncc(Cl)c1)C(=O)O (stereo unspecified)
6,162 to 163 °C,Cc1c(Cc2cccc(C(F)(F)F)c2)oc2c(-c3cccc(C(=O)NCCS(C)(=O)=O)c3)cccc12
7,> 260 °C,CN(c1cccc(C(=O)O)c1)c1ccc(-c2ccc(C(=N)N)cc2)nn1
8,182 °C,O=C(N1CC(CCl)c2c1cc([N+](=O)[O-])c1ccccc21)C(F)(F)F (stereo unspecified)
9,252 to 254 °C,Cc1[nH]c(C(=O)Nc2ccc(C#N)cc2)c(C)c1-c1nc2ccc(C(=O)c3ccccc3)cc2[nH]1
10,178 to 179 °C,CCN(CC)CCOc1ccc(CCNC(=O)c2ccc(-c3ccc(Cl)cc3)cc2)cc1
11,260 to 262 °C,O=C(O)c1cc(O)cc2cc(-c3ccc(O)cc3)oc12
12,147 to 148 °C,CN(C(CCn1c(=O)cc(Cl)[nH]c1=O)C(=O)NO)S(=O)(=O)c1ccc(Oc2cccc(F)c2)cc1 (stereo unspecified)
13,56 to 57 °C,Clc1cncc(-n2ccc3ccccc32)c1
14,102 to 103 °C,CON=C1COc2cc(OCc3ccccc3N(OC)C(=O)OC)ccc21
15,185 to 186 °C,N#CCc1cc(Br)c(C(=O)c2ccc(Cl)cc2)[nH]1
16,158 to 159 °C,Cc1cc(=O)c(Oc2ccc(F)cc2F)c(-c2ccc(S(C)=O)cc2)o1 (stereo unspecified)
17,175 °C,O=C(NCCOc1ccc(-c2ccccc2)cc1)N[C@@H](Cc1ccccc1)C(=O)O
18,119 to 120 °C,Fc1ccc(CN2CCc3cc(OC[C@H]4CO[C@](Cn5ccnc5)(c5ccc(Cl)cc5Cl)O4)ccc3C2)cc1 (racemic)
19,128 to 129 °C,Cc1ccc2c(c1)CC(=O)c1cc(C(C)C(=O)O)ccc1O2 (stereo unspecified)
20,224 to 225 °C,O=c1c2c(O)c(O)ccc2c2cc(O)c(O)cc2n1Cc1ccccc1
21,94 to 96 °C,COc1ccc(C(C)(C)CC(O)(C(=O)O)C(F)(F)F)cc1Br (stereo unspecified)
22,139 to 141 °C,CC1C=CC=CN2C3=C(C(=O)CCC3)N(C(=O)Nc3ccccc3F)C12 (stereo unspecified)
23,265 to 268 °C,Cc1ccc(C(=O)NN2CCOCC2)c(Nc2ccc3cn[nH]c3c2)n1
24,98 to 100 °C,CCOC(=O)COc1cc(F)c(C)cc1C(=S)NCc1ccc(Br)cc1F
25,175 to 178 °C,O=c1cc(-c2ccoc2)c2ccc(Sc3cccc(-c4ccccc4)n3)cc2o1
26,107 to 110 °C,COC(=O)c1ccc(NC(=O)c2ccccc2OC(C)C)c(C(=O)OC)c1
27,340 °C,CC(=O)n1c2ccccc2c2[nH]c(=O)c3nccn3c21

row,melting point,SMILES
1,196 to 197 °C,COc1cc(C(=O)c2cnc3ccccc3c2)ccc1O
2,194 to 195 °C,O=C(Nc1cccc([N+](=O)[O-])c1)C1=C(Nc2ccccc2)COC1=O
3,84 to 85 °C,O=C(Cl)c1cc(OCc2ccccc2)cc([N+](=O)[O-])c1
4,163 to 165 °C,CC(C)c1ccc(NC(=O)OC(C)(C)C)c(NC(=O)CC(=O)c2ccnc(C#N)c2)c1
5,97 to 98 °C,COc1cc(OCCOc2ccc3ccccc3c2)cc(OC)c1C(C)=O
6,151 °C,CN1C[C@@H]2c3ccccc3Oc3ccc(Cl)cc3[C@H]2C1=O (relative stereo)
7,177 to 178 °C,Cc1cnc(-c2cc(-c3ccc(Cl)cc3)c(N3CCOCC3)s2)cc1OCC(F)(F)F
8,147 to 148 °C,Cc1cccc(C)c1N(CCCC(=O)N[C@@H](CO)C(=O)O)C(=O)c1ccc(Cl)cc1
9,195 to 196 °C,CC1CC(=O)NN=C1c1ccc(N)c(N)c1 (stereo unspecified)
10,248 to 251 °C,Cc1oc(C(N)=O)c(C)c1-c1nc2ccc(Oc3ccccc3)cc2[nH]1
11,234 to 237 °C,CC(C)C1(C)NC(c2nc3ccc(Cl)cc3cc2C(=O)O)=NC1=O (stereo unspecified)
12,55 °C,COC(=O)c1cc(C(=O)c2ncc3ccc(N(C)C(=O)OC(C)(C)C)cn23)ccc1[N+](=O)[O-]
13,118 to 120 °C,CC(=O)Nc1ccccc1OCCCN1CCC(c2noc3cc(F)ccc23)CC1
14,116 to 118 °C,CCOC(=O)/C=C(/c1ccc(OC)cc1)c1cc(Cl)cc(Cl)c1
15,125 to 130 °C,O=C(NCC12CC3CC(CC(C3)C1)C2)c1cc(-c2cccnc2N2CCCC(C(=O)O)C2)ccc1Cl (stereo unspecified)
16,160 °C,O=C(c1ccc(CN2CCOCC2)cc1)c1cccc2nc(N[C@@H]3CCc4ccccc43)ccc12
17,91 to 94 °C,CCCCSc1nc(N)c(C(=O)c2ccccc2)s1
18,> 300 °C,O=[N+]([O-])c1ccc2c(Br)cc3nc(O)c(O)nc3c2c1
19,145 to 147 °C,CC(C)(C(=O)c1ccc(C(=O)c2ccc(C(=O)C(C)(C)N3CCOCC3)cc2)cc1)N1CCOCC1
20,125 to 127 °C,O=C(NCN1CCN(c2ccccn2)CC1)c1ccccc1
21,217 to 218 °C,COc1ccc(-n2c(-c3cc(-c4ccc(Cl)cc4)c(N4CCOCC4)s3)nc3ccccc3c2=O)cc1
22,245 to 246 °C,O=C(O)COc1ccc(-c2c3ccc(OCC(=O)O)cc3cc3sc4ccccc4c23)cc1
23,176 to 178 °C,COc1ccc(C2=NN(c3ccc(O)cc3)C(=O)C(C)(C)C2)cc1OC
24,> 90 °C,CCCCc1nn(-c2cc([N+](=O)[O-])ccc2Cl)c(=O)n1Cc1ccc(-c2ccccc2S(N)(=O)=O)cc1
25,210 °C,O=Cc1cc2cc(OCc3ccccc3)c(F)cc2nc1I
26,166 to 167 °C,COc1cc(C=O)ccc1OCc1nc(-c2cccc(C#N)c2)oc1C
27,140 to 142 °C,C[C@@H]1Cc2cc3c(cc2C(c2ccc([N+](=O)[O-])cc2)=NN1C(=S)NN)OCO3
